From patent US10745416B2, “Macrocyclic compounds for treating disease” (Turning Point Therapeutics, Inc., priority 2017, dated 2020)

Assays:
[1] = molecular target: T1, RET (A883F) (Homo sapiens, UniProt P07949, A883F); assay: Biochemical kinase assay (Reaction Biology, 33P ATP); conditions: 10 μM ATP
T1 construct: purchased Reaction Biology Corporation (assay run at the CRO)
Procedure: (§1) The biochemical kinase assay was performed at Reaction Biology Corporation (www.reactionbiology.com, Malvern, Pa.) following the procedures described in the reference (Anastassiadis T, et al Nat Biotechnol. 2011, 29, 1039). Specific kinase/substrate pairs along with required cofactors were prepared in reaction buffer; 20 mM Hepes pH 7.5, 10 mM MgCl2, 1 mM EGTA, 0.02% Brij35, 0.02 mg/ml BSA, 0.1 mM Na3VO4, 2 mM DTIT, 1% DMSO. Compounds were delivered into the reaction, followed ˜20 minutes later by addition of a mixture of ATP (Sigma, St. Louis Mo.) and ^33P ATP (Perkin Elmer, Waltham Mass.) to a final concentration of 10 μM. Reactions were carried out at room temperature for 120 min, followed by spotting of the reactions onto P81 ion exchange filter paper (Whatman Inc., Piscataway, N.J.). Unbound phosphate was removed by extensive washing of filters in 0.75% phosphoric acid. […] IC50 values and curve fits were obtained using Prism (GraphPad Software).

[2] = molecular target: T2, RET (E762Q) (Homo sapiens, UniProt P07949, E762Q); assay: as above; conditions: 10 μM ATP
T2 construct: purchased Reaction Biology Corporation (assay run at the CRO)
T2 sequence (P07949 29-1114 E762Q): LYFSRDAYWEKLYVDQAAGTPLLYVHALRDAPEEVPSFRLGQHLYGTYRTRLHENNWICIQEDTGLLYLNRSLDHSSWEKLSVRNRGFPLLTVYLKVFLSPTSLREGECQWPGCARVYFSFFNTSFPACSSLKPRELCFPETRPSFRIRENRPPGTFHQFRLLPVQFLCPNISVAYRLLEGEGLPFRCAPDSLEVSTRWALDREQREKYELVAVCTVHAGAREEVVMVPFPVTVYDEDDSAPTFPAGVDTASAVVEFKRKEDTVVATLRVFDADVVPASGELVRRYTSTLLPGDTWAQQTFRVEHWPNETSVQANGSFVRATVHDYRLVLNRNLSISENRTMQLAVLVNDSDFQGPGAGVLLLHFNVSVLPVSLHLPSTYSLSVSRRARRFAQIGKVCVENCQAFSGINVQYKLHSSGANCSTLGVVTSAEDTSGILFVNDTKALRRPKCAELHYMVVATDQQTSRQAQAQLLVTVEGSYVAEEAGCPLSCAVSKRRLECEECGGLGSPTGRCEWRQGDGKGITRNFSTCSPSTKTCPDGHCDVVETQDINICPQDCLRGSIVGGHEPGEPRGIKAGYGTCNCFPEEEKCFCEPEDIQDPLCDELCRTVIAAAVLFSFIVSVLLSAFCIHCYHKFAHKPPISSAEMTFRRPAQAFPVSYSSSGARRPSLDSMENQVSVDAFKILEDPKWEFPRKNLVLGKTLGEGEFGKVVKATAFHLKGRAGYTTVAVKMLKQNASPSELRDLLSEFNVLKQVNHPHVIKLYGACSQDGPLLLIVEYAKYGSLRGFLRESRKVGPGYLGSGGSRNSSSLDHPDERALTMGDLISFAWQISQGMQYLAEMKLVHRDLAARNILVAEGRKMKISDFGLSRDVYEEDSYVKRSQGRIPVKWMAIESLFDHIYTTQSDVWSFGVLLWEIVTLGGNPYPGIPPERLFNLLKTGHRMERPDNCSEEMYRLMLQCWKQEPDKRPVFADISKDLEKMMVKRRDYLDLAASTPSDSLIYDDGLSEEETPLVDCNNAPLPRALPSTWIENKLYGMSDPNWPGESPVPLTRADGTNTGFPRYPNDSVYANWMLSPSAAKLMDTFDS
Procedure: as §1

[3] = molecular target: T3, RET (G691S) (Homo sapiens, UniProt P07949, G691S); assay: as above; conditions: 10 μM ATP
T3 construct: purchased Reaction Biology Corporation (assay run at the CRO)
T3 sequence (P07949 29-1114 G691S): as the sequence (P07949 29-1114 E762Q) above, with G663S, Q734E counted along it
Procedure: as §1

[4] = molecular target: T4, RET (Homo sapiens, UniProt P07949); assay: as above; conditions: 10 μM ATP
T4 construct: purchased Reaction Biology Corporation (assay run at the CRO)
T4 sequence (P07949 29-1114): as the sequence (P07949 29-1114 E762Q) above, with Q734E counted along it
Procedure: as §1

[5] = molecular target: T5, RET (L790F) (Homo sapiens, UniProt P07949, L790F); assay: as above; conditions: 10 μM ATP
T5 construct: purchased Reaction Biology Corporation (assay run at the CRO)
T5 sequence (P07949 29-1114 L790F): as the sequence (P07949 29-1114 E762Q) above, with Q734E, L762F counted along it
Procedure: as §1

[6] = molecular target: T6, RET (R749T) (Homo sapiens, UniProt P07949, R749T); assay: as above; conditions: 10 μM ATP
T6 construct: purchased Reaction Biology Corporation (assay run at the CRO)
T6 sequence (P07949 29-1114 R749T): as the sequence (P07949 29-1114 E762Q) above, with R721T, Q734E counted along it
Procedure: as §1

[7] = molecular target: T7, RET (S891A) (Homo sapiens, UniProt P07949, S891A); assay: as above; conditions: 10 μM ATP
T7 construct: purchased Reaction Biology Corporation (assay run at the CRO)
T7 sequence (P07949 29-1114 S891A): as the sequence (P07949 29-1114 E762Q) above, with Q734E, S863A counted along it
Procedure: as §1

[8] = molecular target: T8, RET (S904F) (Homo sapiens, UniProt P07949, S904F); assay: as above; conditions: 10 μM ATP
T8 construct: purchased Reaction Biology Corporation (assay run at the CRO)
T8 sequence (P07949 29-1114 S904F): as the sequence (P07949 29-1114 E762Q) above, with Q734E, S876F counted along it
Procedure: as §1

[9] = molecular target: T9, RET (V804M) (Homo sapiens, UniProt P07949, V804M); assay: as above; conditions: 10 μM ATP
T9 construct: purchased Reaction Biology Corporation (assay run at the CRO)
T9 sequence (P07949 29-1114 V804M): as the sequence (P07949 29-1114 E762Q) above, with Q734E, V776M counted along it
Procedure: as §1

[10] = molecular target: T10, RET (Y791F) (Homo sapiens, UniProt P07949, Y791F); assay: as above; conditions: 10 μM ATP
T10 construct: purchased Reaction Biology Corporation (assay run at the CRO)
T10 sequence (P07949 29-1114 Y791F): as the sequence (P07949 29-1114 E762Q) above, with Q734E, Y763F counted along it
Procedure: as §1

[11] = molecular target: T11, RET-PRKAR1A (PTC2) (Homo sapiens, UniProt P07949); assay: as above; conditions: 10 μM ATP
T11 construct: fusion transcripts composed of the 3′ end of RET kinase domain and the 5′ end of separate partner genes; PRKAR1A N-terminal part (fusion partner); purchased Reaction Biology Corporation (assay run at the CRO); the other entry of the earlier key: PRKAR1A (P10644, cAMP-dependent protein kinase type I-alpha regulatory subunit)
T11 sequence (P07949 with tags, fused parts or gaps): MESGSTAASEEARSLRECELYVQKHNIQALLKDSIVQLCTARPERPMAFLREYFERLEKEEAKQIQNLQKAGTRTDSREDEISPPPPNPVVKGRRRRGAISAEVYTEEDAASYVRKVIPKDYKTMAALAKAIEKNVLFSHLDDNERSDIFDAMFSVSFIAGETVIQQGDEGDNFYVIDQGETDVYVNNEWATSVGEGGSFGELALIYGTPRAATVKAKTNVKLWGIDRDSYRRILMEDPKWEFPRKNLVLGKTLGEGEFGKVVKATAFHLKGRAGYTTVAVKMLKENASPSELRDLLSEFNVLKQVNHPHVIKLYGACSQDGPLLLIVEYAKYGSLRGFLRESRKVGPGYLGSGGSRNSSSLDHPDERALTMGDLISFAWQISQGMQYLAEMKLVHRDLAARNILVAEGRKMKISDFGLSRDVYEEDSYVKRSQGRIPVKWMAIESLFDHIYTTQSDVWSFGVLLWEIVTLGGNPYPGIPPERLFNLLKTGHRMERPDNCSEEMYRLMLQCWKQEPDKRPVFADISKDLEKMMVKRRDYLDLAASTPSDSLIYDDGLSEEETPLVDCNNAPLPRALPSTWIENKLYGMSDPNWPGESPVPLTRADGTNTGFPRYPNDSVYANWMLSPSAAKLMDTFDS
Procedure: as §1

[12] = molecular target: T12, YES (Homo sapiens, UniProt P07947); assay: as above; conditions: 10 μM ATP
T12 construct: purchased Reaction Biology Corporation (assay run at the CRO)
T12 sequence (P07947 whole entry): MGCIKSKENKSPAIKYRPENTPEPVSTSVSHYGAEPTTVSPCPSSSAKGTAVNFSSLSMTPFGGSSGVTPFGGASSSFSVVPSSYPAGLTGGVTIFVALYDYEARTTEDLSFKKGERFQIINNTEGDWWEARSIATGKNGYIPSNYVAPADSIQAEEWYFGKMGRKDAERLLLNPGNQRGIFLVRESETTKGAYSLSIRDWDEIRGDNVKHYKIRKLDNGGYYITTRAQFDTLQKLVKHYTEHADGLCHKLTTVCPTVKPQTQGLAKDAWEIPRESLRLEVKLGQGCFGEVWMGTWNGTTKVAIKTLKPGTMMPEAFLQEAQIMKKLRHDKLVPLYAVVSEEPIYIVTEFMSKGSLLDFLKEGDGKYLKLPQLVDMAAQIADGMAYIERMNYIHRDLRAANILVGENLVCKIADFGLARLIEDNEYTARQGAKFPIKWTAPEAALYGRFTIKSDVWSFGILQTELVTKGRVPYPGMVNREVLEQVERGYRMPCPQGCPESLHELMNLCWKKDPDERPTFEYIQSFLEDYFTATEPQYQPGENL
Procedure: as §1

[13] = molecular target: T13, BaF3 EML4-ALK (Homo sapiens, UniProt Q9UM73); assay: Cell proliferation assay (CellTiter-Glo, 72 hours); type: cell-based; conditions: anti-cell proliferation
T13 construct: The EML4-ALK gene (variant 1) was synthesized at GenScript and cloned into pCDH-CMV-MCS-EF1-Puro plasmid (System Biosciences, Inc); fused on or other part: Q9HC35 (Echinoderm microtubule-associated protein-like 4)
T13 sequence (Q9UM73 whole entry, change not shown, the tested form may be a part): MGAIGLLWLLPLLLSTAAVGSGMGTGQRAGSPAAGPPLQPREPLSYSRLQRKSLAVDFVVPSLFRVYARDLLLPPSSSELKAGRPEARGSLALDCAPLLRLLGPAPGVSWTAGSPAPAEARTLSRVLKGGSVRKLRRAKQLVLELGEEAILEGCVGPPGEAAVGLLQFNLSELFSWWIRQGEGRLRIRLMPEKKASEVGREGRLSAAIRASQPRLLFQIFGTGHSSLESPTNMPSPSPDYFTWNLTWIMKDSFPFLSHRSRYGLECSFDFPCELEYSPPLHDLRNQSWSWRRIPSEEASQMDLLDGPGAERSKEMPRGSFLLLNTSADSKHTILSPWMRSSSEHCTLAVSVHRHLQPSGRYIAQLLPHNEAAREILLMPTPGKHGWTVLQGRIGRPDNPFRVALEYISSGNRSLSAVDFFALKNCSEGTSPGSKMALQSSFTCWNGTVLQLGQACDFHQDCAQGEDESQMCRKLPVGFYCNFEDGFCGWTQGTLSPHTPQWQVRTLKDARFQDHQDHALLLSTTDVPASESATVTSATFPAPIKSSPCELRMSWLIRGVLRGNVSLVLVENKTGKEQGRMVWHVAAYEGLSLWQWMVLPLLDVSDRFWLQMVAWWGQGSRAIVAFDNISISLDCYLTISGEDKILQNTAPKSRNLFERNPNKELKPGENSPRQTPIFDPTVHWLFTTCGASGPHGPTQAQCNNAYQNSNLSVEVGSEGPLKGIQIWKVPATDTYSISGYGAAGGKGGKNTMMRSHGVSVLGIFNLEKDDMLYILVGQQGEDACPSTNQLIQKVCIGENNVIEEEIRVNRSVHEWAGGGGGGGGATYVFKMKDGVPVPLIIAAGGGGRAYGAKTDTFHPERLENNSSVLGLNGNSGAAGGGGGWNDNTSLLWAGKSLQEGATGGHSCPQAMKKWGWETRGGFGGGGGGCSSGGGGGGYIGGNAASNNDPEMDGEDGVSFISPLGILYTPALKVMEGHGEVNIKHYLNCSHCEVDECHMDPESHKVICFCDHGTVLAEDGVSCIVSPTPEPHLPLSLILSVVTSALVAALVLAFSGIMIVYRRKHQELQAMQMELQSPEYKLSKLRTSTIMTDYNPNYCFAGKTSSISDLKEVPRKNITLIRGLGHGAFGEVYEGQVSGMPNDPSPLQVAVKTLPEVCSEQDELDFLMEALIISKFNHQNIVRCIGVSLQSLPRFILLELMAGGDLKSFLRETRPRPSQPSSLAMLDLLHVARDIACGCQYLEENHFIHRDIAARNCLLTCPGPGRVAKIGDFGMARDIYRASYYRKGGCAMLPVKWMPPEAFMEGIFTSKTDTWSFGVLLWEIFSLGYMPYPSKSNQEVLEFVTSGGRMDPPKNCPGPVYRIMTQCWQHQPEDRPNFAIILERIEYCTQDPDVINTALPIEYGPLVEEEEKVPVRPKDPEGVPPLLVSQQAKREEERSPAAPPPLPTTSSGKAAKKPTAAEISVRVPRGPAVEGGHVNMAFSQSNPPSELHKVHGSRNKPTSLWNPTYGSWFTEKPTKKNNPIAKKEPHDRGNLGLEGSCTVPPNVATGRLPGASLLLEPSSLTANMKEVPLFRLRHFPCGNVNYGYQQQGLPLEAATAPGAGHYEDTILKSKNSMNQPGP
Procedure, shortened: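 Ba/F3 cells were stably transduced with wild-type EML4-ALK variant 1 and selected for IL-3-independent growth. Cells were seeded for 24 h, then exposed to compounds for 72 h at 37 °C, 5% CO2. Viability was read as ATP luminescence and IC50 values were fitted.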

[14] = tested on: TT cell (RET C634W); assay: Cell proliferation assay (CellTiter-Glo, 72 hours); type: cell-based; conditions: Homo sapiens, anti-cell proliferation
Procedure: Human medulla thyroid carcinoma cell line TT (containing RET […] mutation) and acute myelogenous cell line KG-1 were purchased from ATCC. Human colon cancer cell line KMI2 (containing TPM3-TRKA) was obtained from NCI.
Two thousand cells per well were seeded in 384 well white plate for 24 hrs, and then treated with compounds for 72 hours (37° C., 5% CO2). Cell proliferation was measured using CellTiter-Glo luciferase-based ATP detection assay (Promega) following the manufactures's protocol. IC50 determinations were performed using GraphPad Prism software (GraphPad, Inc., San Diego, Calif.).

[15] = molecular target: T14, BaF3 KIF5B-RET (Homo sapiens, UniProt P07949); assay: Cell proliferation assay (CellTiter-Glo, 72 hours); type: cell-based; conditions: anti-cell proliferation, read-out: BaF3 KIF5B-RET IC50
T14 construct: fused on or other part: P33176 (Kinesin-1 heavy chain)
Procedure, shortened: (§2)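 Ba/F3 cells were lentivirally transduced with wild-type or mutant KIF5B-RET, puromycin-selected and grown without IL-3. CellTiter-Glo ATP luminescence read viability, and IC50 values came from curve fitting.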

[16] = molecular target: T15, BaF3 KIF5B-RET_G810R (Homo sapiens, UniProt P07949, G810R, cells depend on it); assay: Cell proliferation assay (CellTiter-Glo, 72 hours); type: cell-based; conditions: anti-cell proliferation, read-out: BaF3 KIF5B-RET_G810R IC50
T15 construct: fused on or other part: P33176 (Kinesin-1 heavy chain)

[17] = molecular target: T16, BaF3 KIF5B-RET_V804M (Homo sapiens, UniProt P07949, V804M, cells depend on it); assay: Cell proliferation assay (CellTiter-Glo, 72 hours); type: cell-based; conditions: anti-cell proliferation, read-out: BaF3 KIF5B-RET_V804M IC50
T16 construct: fused on or other part: P33176 (Kinesin-1 heavy chain)
Procedure, shortened: as §2

T1 sequence (P07949 29-1114 A883F): as the sequence (P07949 29-1114 E762Q) above, with Q734E, A855F counted along it

| IC50 [1] | IC50 [2] | IC50 [3] | IC50 [4] | IC50 [5] | IC50 [6] | IC50 [7] | IC50 [8] | IC50 [9] | IC50 [10] | IC50 [11] | IC50 [12] | GI50 [13] | GI50 [15] | GI50 [16] | GI50 [17] | Structure (SMILES) | IC50 [14] |
| --- | --- | --- | --- | --- | --- | --- | --- | --- | --- | --- | --- | --- | --- | --- | --- | --- | --- |
| 3.08 nM | 0.58 nM | 0.941 nM | 1.01 nM | 1.31 nM | 0.32 nM | 0.303 nM | 0.364 nM | 18.8 nM | 7.95 nM | 0.29 nM | 2.64 nM | 516 nM | 2.4 nM | 22 nM | 598 nM | C[C@H]1CNC(=O)c2cnn3cc4c(nc23)N(Cc2cc(F)cnc2O1)[C@@H]1CCC[C@@H]1O4 [Compound 5, (3aR,11S,20aS)-7-fluoro-11-methyl-2,3,3a,12,13,20a-hexahydro-1H,5H-17-19-(metheno)cyclopenta[5,6][1,4] oxazino[3,4-i]pyrazolo[4,3-f]pyrido[3,2-l][1,4,8,10]oxatriazacyclotridecin-14(11H)-one] | 0.9 nM |
| 0.52 nM | 2.07 nM | 3.01 nM | 0.0994 nM | 0.12 nM | 0.271 nM | 0.664 nM | 0.0621 nM | 7.86 nM | < 0.0508 nM | 0.129 nM | 1.72 nM | 211 nM | 0.25 nM | 30 nM | 1000 nM | C[C@H]1CNC(=O)c2cnn3cc4c(nc23)N(Cc2cc(F)ccc2O1)[C@@H]1CCC[C@@H]1O4 [Compound 1, (3aR,11S,20aS)-7-fluoro-11-methyl-2,3,3a,12,13,20a-hexahydro-1H,5H-17-19-(metheno)cyclopenta[5,6][1,4] oxazino[3,4-i]pyrazolo[4,3-f][1,4,8,10]benzoxatriacyclotridecin-14(11H)-one] | < 0.5 nM |
